# According to patent US20260317319A1, “NOVEL ERGOLINES AND METHODS OF TREATING MOOD DISORDERS” (Gilgamesh Pharma Inc., priority 2023, published 2026):
# Columns and labels:
# [1] = target: T1, Alpha2A adrenergic receptor (Homo sapiens, UniProt P08913); experiment: Ca2+ flux functional assay at Alpha2A; format: cell-based; settings: for maximal efficacy at Alpha2A: "higher" is compared to the N-methyl compound LSD; for Emax: agonist, Ca2+ flux, max dose, read-out: Alpha 2A % Act @ Max Dose
# T1 construct: expressed in transfected cells
# T1 sequence (P08913 1-465): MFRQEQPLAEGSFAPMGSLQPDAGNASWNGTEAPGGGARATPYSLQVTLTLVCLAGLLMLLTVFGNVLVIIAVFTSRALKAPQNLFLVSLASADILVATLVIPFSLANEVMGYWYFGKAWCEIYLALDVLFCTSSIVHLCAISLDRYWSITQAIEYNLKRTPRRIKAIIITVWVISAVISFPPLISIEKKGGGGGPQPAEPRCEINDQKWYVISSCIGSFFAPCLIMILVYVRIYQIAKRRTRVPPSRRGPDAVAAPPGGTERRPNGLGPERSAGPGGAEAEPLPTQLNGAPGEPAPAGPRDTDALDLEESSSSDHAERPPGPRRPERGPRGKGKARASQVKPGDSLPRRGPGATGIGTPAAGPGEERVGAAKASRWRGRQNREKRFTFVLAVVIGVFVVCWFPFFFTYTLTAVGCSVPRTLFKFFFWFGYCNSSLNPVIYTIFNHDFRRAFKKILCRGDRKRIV
# Procedure: Functional Assays at Adrenergic and Dopamine Receptors. Agonist activity at Alpha1A, Alpha2A, D1, and D2 receptors was determined using a FLIPR Ca^2+ flux assay at WuXi AppTec (Hong Kong) Limited according to their standard protocols. Briefly, stably transfected cells expressing the receptor of interest were grown and plated in a 384 well plate and incubated at 37° C. and 5% CO2 overnight. A solution of 250 mM probenecid in 1 mL FLIPR assay buffer was prepared fresh. This was combined with a fluorescent dye (Fluo-4 Direct™) to make a final assay concentration of 2.5 mM. […] The fluorescent dye was then added to the assay plate along with assay buffer to a final volume of 40 μL. The cell plate was incubated for 50 min at 37° C. and 5% CO2 and placed into the FLIPR Tetra along with the compound plate. 10 μL of references and compounds were then transferred from the compound plate into the cell plate and the fluorescent signal was read.
# D2 dopamine receptor = target: T2, D2 dopamine receptor (Homo sapiens, UniProt P14416); experiment: Ca2+ flux functional assay at D2; format: cell-based; settings: for Emax: agonist, Ca2+ flux, max dose, read-out: D2 % Act @ Max Dose; for maximal efficacy at D2: compared to the N-methyl compound LSD
# T2 construct: expressed in transfected cells
# T2 sequence (P14416 whole entry): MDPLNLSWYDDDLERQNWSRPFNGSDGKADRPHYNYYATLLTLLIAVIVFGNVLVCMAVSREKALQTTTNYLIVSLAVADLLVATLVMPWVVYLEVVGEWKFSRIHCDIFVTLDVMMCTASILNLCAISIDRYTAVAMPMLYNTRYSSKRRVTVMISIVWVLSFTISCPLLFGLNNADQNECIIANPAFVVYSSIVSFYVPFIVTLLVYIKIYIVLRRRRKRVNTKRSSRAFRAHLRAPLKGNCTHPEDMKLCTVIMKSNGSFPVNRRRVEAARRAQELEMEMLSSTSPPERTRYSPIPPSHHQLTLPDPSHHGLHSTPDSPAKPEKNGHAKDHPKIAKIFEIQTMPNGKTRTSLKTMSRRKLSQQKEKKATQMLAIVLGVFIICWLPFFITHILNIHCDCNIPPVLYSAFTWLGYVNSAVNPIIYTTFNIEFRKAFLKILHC
# Procedure: Disclosed compounds were tested for agonist activity at several adrenergic (Alpha1A and Alpha2A) and dopamine (D1 and D2) receptor subtypes using Ca^2+ flux functional assays, with the results summarized in Table 6. Selectivity for the 5-HT2A receptor over these other targets varied depending on the specific target and compound.
# Functional Assays at Adrenergic and Dopamine Receptors. Agonist activity at Alpha1A, Alpha2A, D1, and D2 receptors was determined using a FLIPR Ca^2+ flux assay at WuXi AppTec (Hong Kong) Limited according to their standard protocols. Briefly, stably transfected cells expressing the receptor of interest were grown and plated in a 384 well plate and incubated at 37° C. and 5% CO2 overnight. A solution of 250 mM probenecid in 1 mL FLIPR assay buffer was prepared fresh. This was combined with a fluorescent dye (Fluo-4 Direct™) to make a final assay concentration of 2.5 mM. Compounds were diluted 1:3.16 for 10 points and 750 nL was added to a 384 well compound plate using ECHO along with 30 μL assay buffer. The fluorescent dye was then added to the assay plate along with assay buffer to a final volume of 40 μL. The cell plate was incubated for 50 min at 37° C. and 5% CO2 and placed into the FLIPR Tetra along with the compound plate. 10 μL of references and compounds were then transferred from the compound plate into the cell plate and the fluorescent signal was read.
# C57BL/6 mice [2] = experiment: Mouse head twitch response (HTR) assay (observer-counted); format: in vivo; settings: for HTR at most efficacious dose (bound): 20 min
# Procedure: Agonists of the 5-HT2A receptor are well known to induce this effect in rodents and the potency of this HTR is correlated with hallucinogenic potency in humans.
# Animals. Adult male C57BL/6 mice, aged 6-8 weeks (body weight 20-25 g) were used in this experiment. Animals were housed under controlled temperatures and 12-hour light/dark cycles (lights on between 07:00-19:00 h), with ad libitum food and water. This study was carried out in strict accordance with the requirements of the Committee for the Purpose of Control and Supervision of Experiments on Animals (CPCSEA), India. All efforts were made to minimize suffering.
# Procedure. Mice were administered one dose of the drug and immediately placed into a small open field for behavioral observation. Animals were observed continuously for 20 mins and the number of head twitches (HTs) were counted by an observer blind to the treatment condition.
# Statistical Analysis. The data points shown are the mean±standard error of the mean (SEM). Analysis was performed using GraphPad Prism 6. Curves were fit using a non-linear gaussian distribution to calculate ED50 and Emax values.
# Additional disclosed compounds were tested in the mouse head twitch response (HTR) assay according to the procedure described in Example 57 (administered SC). […] Lastly, compounds with much larger benzyl and phenethyl substituents on the amine nitrogen (e.g., 10 and 11) were low efficacy in this assay, consistent with their bias toward arrestin signaling (see Example 55).
# C57BL/6 mice [3] = experiment: Automated mouse head twitch response (HTR) assay (video tracking); format: in vivo; settings: sc
# Summary of the method: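 Adult male C57BL/6 mice (8-10 weeks, 18-25 g) received a single drug dose and were video-recorded in a small open field for 20 min immediately after dosing. HTR events were detected automatically from periodic ear-position deviations above preset thresholds. Values are total HTR counts over 20 min and HTR/min in 2-min bins, mean±SEM.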
SMILES,maximal efficacy at Alpha2A [1],Emax [1],Emax (D2 dopamine receptor),maximal efficacy at D2 (D2 dopamine receptor),HTR at most efficacious dose (bound) (C57BL/6 mice [2]; SC),"# HTR/20 min at Most Efficacious Dose (C57BL/6 mice [2]; SC, most efficacious dose 0.32 mg/kg)","# HTR/20 min at Most Efficacious Dose (C57BL/6 mice [3]; 20 min recording, mean, at each compound's most efficacious dose (35*, 43*, 44*: suppressed below vehicle 14.5, dose is that of least suppression))","Most Efficacious Dose for Peak HTR/min (C57BL/6 mice [3]; dose giving highest peak HTR/min (35*, 43*, 44*: dose that resulted in the least suppression))","Most Efficacious Dose for # HTR/20 min (C57BL/6 mice [3]; dose giving most HTR/20 min (35*, 43*, 44*: dose that resulted in the least suppression))","Peak HTR/min at Most Efficacious Dose (C57BL/6 mice [3]; rate over 2-min bins, mean, at each compound's most efficacious dose (35*, 43*, 44*: suppressed below vehicle 1.62, dose is that of least suppression))","head twitch response (C57BL/6 mice [2]; 20 min observation, FIG. 1)"
"CCCN1C[C@H](C(=O)N[C@H](C)CC)C=C2c3cccc4[nH]cc(c34)C[C@H]21 [Compound 3, (6aR,9R)—N—((R)-sec-butyl)-7-propyl-4,6,6a,7,8,9-hexahydroindolo[4,3-fg]quinoline-9-carboxamide]",substantially higher maximal efficacy,96.8%,117%,substantially higher maximal efficacy,> 15 HTR,27.0 HTR/20 min,,,,,
"CCCN1C[C@H](C(=O)N(CC)CC)C=C2c3cccc4[nH]cc(c34)C[C@H]21 [Compound 1, (6aR,9R)—N,N-diethyl-7-propyl-4,6,6a,7,8,9-hexahydroindolo[4,3-fg]quinoline-9-carboxamide]",substantially higher maximal efficacy,58.3%,94.5%,substantially higher maximal efficacy,> 15 HTR,,20.625 HTR/20 min,"(0.32) mg/kg, sc","(0.32) mg/kg, sc",2.19 HTR/min,robust and dose-dependent HTR
"CCN(CC)C(=O)[C@@H]1C=C2c3cccc4[nH]cc(c34)C[C@H]2N(CCCF)C1 [Compound 2, (6aR,9R)—N,N-diethyl-7-(3-fluoropropyl)-4,6,6a,7,8,9-hexahydroindolo[4,3-fg]quinoline-9-carboxamide]",substantially higher maximal efficacy,65%,91.2%,substantially higher maximal efficacy,> 15 HTR,,,,,,
